Data: patent US6355799B1, “Substituted benzene compounds, process for their preparation, and herbicidal and defoliant compositions containing them” (ISK Americas Incorporated, priority 1997, dated 2002)

Key:
Type in all cases: in vivo
[1] = test system: upland rice (Oryza sp., var. Tebonnet, RICE); test: Post-emerge test, crop safety; conditions: rating scale 0-100 (0 no damage, 100 complete death), 14 days after application
Procedure, shortened: (§1)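 Compounds in acetone were track-sprayed at 187 l/ha, 15–1000 g ai/ha, onto sandy loam pots. Pre-emerge seeds were sown one day before spraying, with surface watering afterwards. Post-emerge plants were at the 2–3 leaf stage and sprayed with 0.25% v/v non-ionic surfactant. Injury was rated 0–100 at 14 days.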

[2] = test system: field corn (Zea mays L., var. Dekalb 535, CORN); test: Post-emerge test, crop safety; conditions: rating scale 0-100 (0 no damage, 100 complete death), 14 days after application
Procedure, shortened: as §1

[3] = test system: barnyardgrass (Echinochloa crus-galli, ECHCG); test: Pre-emerge test, greenhouse herbicide activity screening; conditions: pre-emerge, 14 days after application, rating scale 0-100
Procedure, shortened: as §1

[4] = test system: johnsongrass (Sorghum halepense, SORHA); test: as above; conditions: pre-emerge, 14 days after application, rating scale 0-100
Procedure, shortened: as §1

[5] = test system: velvetleaf (Abutilon theophrasti, ABUTH); test: as above; conditions: pre-emerge, 14 days after application, rating scale 0-100
Procedure, shortened: as §1

[6] = test system: large crabgrass (Digitaria sanguinalis, DIGSA); test: as above; conditions: pre-emerge, 14 days after application, rating scale 0-100
Procedure, shortened: as §1

[7] = test system: lambsquarters (Chenopodium album, CHEAL); test: as above; conditions: pre-emerge, 14 days after application, rating scale 0-100
Procedure, shortened: as §1

[8] = test system: sicklepod (Cassia obtusifolia, CASOB); test: as above; conditions: pre-emerge, 14 days after application, rating scale 0-100
Procedure, shortened: as §1

[9] = test system: ivyleaf morningglory (Ipomoea hederacea, IPOHE); test: as above; conditions: pre-emerge, 14 days after application, rating scale 0-100
Procedure, shortened: as §1

[10] = test system: green foxtail (Setaria viridis, SETVI); test: as above; conditions: pre-emerge, 14 days after application, rating scale 0-100
Procedure, shortened: as §1

[11] = test system: redroot pigweed (Amaranthus retroflexus, AMARE); test: as above; conditions: pre-emerge, 14 days after application, rating scale 0-100
Procedure, shortened: as §1

[12] = test system: barnyardgrass (Echinochloa crus-galli, ECHCG); test: Post-emerge test, greenhouse herbicide activity screening; conditions: rating scale 0-100 (0 no damage, 100 complete death), 14 days after application
Procedure, shortened: (§2)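 Visual ratings on a 0-100 scale (0 no damage, 100 all plants dead) were taken at 14 days after treatment. Rates of 15-1000 g ai/ha in acetone, 187 l/ha, were sprayed onto soil one day after planting (pre-emerge) or onto 2-3 leaf plants with 0.25% v/v surfactant (post-emerge).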

[13] = test system: johnsongrass (Sorghum halepense, SORHA); test: as above; conditions: rating scale 0-100 (0 no damage, 100 complete death), 14 days after application
Procedure, shortened: as §2

[14] = test system: velvetleaf (Abutilon theophrasti, ABUTH); test: as above; conditions: rating scale 0-100 (0 no damage, 100 complete death), 14 days after application
Procedure, shortened: as §2

[15] = test system: redroot pigweed (Amaranthus retroflexus, AMARE); test: as above; conditions: rating scale 0-100 (0 no damage, 100 complete death), 14 days after application
Procedure, shortened: as §2

[16] = test system: common ragweed (Ambrosia artemisizfolia L., AMBEL); test: as above; conditions: rating scale 0-100 (0 no damage, 100 complete death), 14 days after application
Procedure, shortened: as §2

[17] = test system: large crabgrass (Digitaria sanguinalis, DIGSA); test: as above; conditions: rating scale 0-100 (0 no damage, 100 complete death), 14 days after application
Procedure, shortened: as §2

[18] = test system: lambsquarters (Chenopodium album, CHEAL); test: as above; conditions: rating scale 0-100 (0 no damage, 100 complete death), 14 days after application
Procedure, shortened: as §2

[19] = test system: sicklepod (Cassia obtusifolia, CASOB); test: as above; conditions: rating scale 0-100 (0 no damage, 100 complete death), 14 days after application
Procedure, shortened: as §2

[20] = test system: ivyleaf morningglory (Ipomoea hederacea, IPOHE); test: as above; conditions: rating scale 0-100 (0 no damage, 100 complete death), 14 days after application
Procedure, shortened: as §2

[21] = test system: green foxtail (Setaria viridis, SETVI); test: as above; conditions: rating scale 0-100 (0 no damage, 100 complete death), 14 days after application
Procedure, shortened: as §2

[22] = test system: upland rice (Oryza sp., var. Tebonnet, RICE); test: Pre-emerge test, crop safety; conditions: pre-emerge, 14 days after application, rating scale 0-100
Procedure, shortened: as §1

[23] = test system: field corn (Zea mays L., var. Dekalb 535, CORN); test: Pre-emerge test, crop safety; conditions: pre-emerge, 14 days after application, rating scale 0-100
Procedure, shortened: as §1

## CCOC(=O)C(Cl)(C#N)Cc1c(OC)c(Cl)cc(F)c1-n1c(=O)cc(C(F)(F)F)n(C)c1=O (stereo not shown) [14-51]
[1]; Rate 63 g ai/ha
  Post-emerge phytotoxicity rating RICE (crop damage): 0
[1]; Rate 250 g ai/ha
  Post-emerge phytotoxicity rating RICE (crop damage): 0
[2]; Rate 63 g ai/ha
  Post-emerge phytotoxicity rating CORN (crop damage): 0
[2]; Rate 250 g ai/ha
  Post-emerge phytotoxicity rating CORN (crop damage): 0
[3]; 63 g ai/ha
  phytotoxicity rating ECHCG: 0
[3]; 250 g ai/ha
  phytotoxicity rating ECHCG: 0
[4]; 63 g ai/ha
  phytotoxicity rating SORHA: 0
[4]; 250 g ai/ha
  phytotoxicity rating SORHA: 0
[5]; 63 g ai/ha
  phytotoxicity rating ABUTH: 10
[5]; 250 g ai/ha
  phytotoxicity rating ABUTH: 100
[6]; 63 g ai/ha
  phytotoxicity rating DIGSA: 0
[6]; 250 g ai/ha
  phytotoxicity rating DIGSA: 0
[7]; 63 g ai/ha
  phytotoxicity rating CHEAL: 90
[7]; 250 g ai/ha
  phytotoxicity rating CHEAL: 100
[8]; 63 g ai/ha
  phytotoxicity rating CASOB: 0
[8]; 250 g ai/ha
  phytotoxicity rating CASOB: 0
[9]; 63 g ai/ha
  phytotoxicity rating IPOHE: 0
[9]; 250 g ai/ha
  phytotoxicity rating IPOHE: 50
[10]; 63 g ai/ha
  phytotoxicity rating SETVI: 0
[10]; 250 g ai/ha
  phytotoxicity rating SETVI: 0
[11]; 63 g ai/ha
  phytotoxicity rating AMARE: 100
[11]; 250 g ai/ha
  phytotoxicity rating AMARE: 100
[12]; Rate 63 g ai/ha
  Post-emerge Herbicidal Activity, phytotoxicity rating ECHCG: 10
[12]; Rate 250 g ai/ha
  Post-emerge Herbicidal Activity, phytotoxicity rating ECHCG: 20
[13]; Rate 63 g ai/ha
  Post-emerge Herbicidal Activity, phytotoxicity rating SORHA: 0
[13]; Rate 250 g ai/ha
  Post-emerge Herbicidal Activity, phytotoxicity rating SORHA: 0
[14]; Rate 63 g ai/ha
  Post-emerge Herbicidal Activity, phytotoxicity rating ABUTH: 0
[14]; Rate 250 g ai/ha
  Post-emerge Herbicidal Activity, phytotoxicity rating ABUTH: 50
[15]; Rate 63 g ai/ha
  Post-emerge Herbicidal Activity, phytotoxicity rating AMARE: 0
[15]; Rate 250 g ai/ha
  Post-emerge Herbicidal Activity, phytotoxicity rating AMARE: 0
[16]; Rate 63 g ai/ha
  Post-emerge Herbicidal Activity, phytotoxicity rating AMBEL: 0
[16]; Rate 250 g ai/ha
  Post-emerge Herbicidal Activity, phytotoxicity rating AMBEL: 20
[17]; Rate 63 g ai/ha
  Post-emerge Herbicidal Activity, phytotoxicity rating DIGSA: 0
[17]; Rate 250 g ai/ha
  Post-emerge Herbicidal Activity, phytotoxicity rating DIGSA: 0
[18]; Rate 63 g ai/ha
  Post-emerge Herbicidal Activity, phytotoxicity rating CHEAL: 0
[18]; Rate 250 g ai/ha
  Post-emerge Herbicidal Activity, phytotoxicity rating CHEAL: 10
[19]; Rate 63 g ai/ha
  Post-emerge Herbicidal Activity, phytotoxicity rating CASOB: 0
[19]; Rate 250 g ai/ha
  Post-emerge Herbicidal Activity, phytotoxicity rating CASOB: 0
[20]; Rate 63 g ai/ha
  Post-emerge Herbicidal Activity, phytotoxicity rating IPOHE: 0
[20]; Rate 250 g ai/ha
  Post-emerge Herbicidal Activity, phytotoxicity rating IPOHE: 30
[21]; Rate 63 g ai/ha
  Post-emerge Herbicidal Activity, phytotoxicity rating SETVI: 0
[21]; Rate 250 g ai/ha
  Post-emerge Herbicidal Activity, phytotoxicity rating SETVI: 0
[22]; 63 g ai/ha
  phytotoxicity rating RICE: 0
[22]; 250 g ai/ha
  phytotoxicity rating RICE: 0
[23]; 63 g ai/ha
  phytotoxicity rating CORN: 0
[23]; 250 g ai/ha
  phytotoxicity rating CORN: 0
